{"source": "patent US20180296523A1", "about": "“USE OF POLYMETHOXYLATED FLAVONES TO AMELIORATE CIRCADIAN RHYTHM DISORDERS” (THE BOARD OF REGENTS OF THE UNIVERSITY OF TEXAS SY, priority 2017, published 2018)", "key": {"[1]": {"system": "Bmal1 promoter (RORE) with RORα or RORγ", "assay": "Bmal1 promoter-driven luciferase reporter in Hepa1-6 cells", "type": "cell-based, mouse", "description": "Plasmids containing the retinoic acid-related orphan receptor response element (RORE) from mouse Bmal1 promoter, pcDNA3.1B-G4DBD-RORαLBD and pcDNA3.1BG4DBD-RORγLBD were constructed in our lab. Specifically, the 1960 bp sequences (−1830/+130) of the mouse Bmal1 promoter harboring either WT ([…] (SEQ ID NO:1) and […] (SEQ ID NO:2)) or mutant ([…] (SEQ ID NO:3)) RORE were PCR amplified from mouse genomic DNA and cloned into pGL3-promoter luciferase vector. For expression of RORα or RORγ-GAL4 protein, mouse RORα-LBD (aa 261-523) or RORγ-LBD (aa 250-516) were PCR amplified from mouse genomic DNA and cloned into a GAL4-DBD-containing vector, pcDNA3.1B.\nFor mammalian one-hybrid assays, HEK293T cells were cotransfected with pcDNA3.1B-G4DBD-RORα/γLBD, pGL4.31 and TK promoter Renilla luciferase construct (tK.pRL). To investigate the regulation of the Bmal1 reporter, Hepa1-6 cells were cotransfected with Bmal1-WT or mutant RORE reporter plasmids, RORα, RORγ or Rev-erbα expression construct along with tK.pRL. Mouse and human siRNA targeting RORα and RORγ were purchased from Santa Cruz. Transfection was performed by Lipfectamine 2000 reagent (Invitrogen) Twenty-four hours after transfection, the cells were treated with vehicle or NOB. Lysates were collected 24 h after treatment, and firefly and Renilla luciferase activities were measured by using a Dual-Luciferase Reporter System (Promega)."}, "[2]": {"system": "peripheral tissue explants from PER2::Luc reporter mice", "assay": "PER2::Luc reporter rhythms in peripheral tissue explants", "type": "cell-based, mouse", "method": "(§1) The chemical screen for circadian clock modulators was conducted at the Chemical Genomics Core facility at the UTHSC-H. The in-house chemical library screened consists of compounds from NIH Clinical Collection, NCI collection and Microsource Spectrum Collection. The screening was conducted largely based on the protocol previously described (Chen et al., 2012). Briefly, 15,000 immortalized fibroblast cells from Clock^Δ19/+ heterozygous mice expressing the PER2::Luc bioluminescence reporter were plated into each well of 96-well plates, and incubated for 3-4 d to allow growth to confluency. Cells were then incubated with 5 μM forskolin for 1-2 h followed by the addition of chemical compounds to the plates with robotic arms (Beckman), and then subjected to continuous monitoring over several days in a temperature-controlled EnVision microplate reader (Perkin Elmer). Data analysis was carried out by using the MultiCycle software (Actimetrics) for measurement of period, phase, and amplitude. […] NOB and a structurally related analog Naringin (NAR) were re-ordered from commercial sources including Sigma and GenDEPOT and dose response validation was conducted using PER2::LucSV reporter fibroblast cells which express stronger bioluminescence signals and thus allow precise measurements of circadian clock effects of compounds (Chen et al., 2012). Tissue explant experiments were conducted as described previously (Chen et al., 2012)."}, "[3]": {"system": "SCN explants from PER2::Luc WT reporter mice", "assay": "PER2::Luc reporter rhythms in SCN explants", "type": "cell-based, mouse", "conditions": "listed as NOB", "method": "as §1, with “Tissue explant experiments were conducted as described previously (Chen et al., 2012).” left out"}, "Cps1 gene": {"system": "Cps1 gene", "conditions": "Clock^Δ19/Δ19 mutant mice; cited from earlier work"}, "regular chow-fed mice": {"system": "regular chow-fed mice", "assay": "Metabolic homeostasis in regular chow-fed mice", "type": "in vivo, mouse", "conditions": "regular chow (RC) feeding, 9-week treatment", "method": "Weekly body weight was monitored in different treatment mice for 10 weeks. Body mass composition was measured at the end of experiments using a minispec mqNMR spectrometer (Bruker Optics, Texas) (Garcia et al., 2013). A control group of mice were fed with regular chow diet (Purina 5001) in parallel with the two treatment groups in HFD. For db/db and db/db Clock^Δ19/Δ19 mice, male mice at 6-8 weeks of age were group-housed (2-3/cage) and maintained on regular chow diets. Mice were subjected to oral gavage with either DMSO or NOB as described above.\nGlucose tolerance test (GTT) and insulin tolerance test (ITT) were performed largely as described (He et al., 2015; Jeong et al., 2015). Briefly, after overnight and 5-hr fasting, GTT and ITT were conducted at ZT2 and ZT8 respectively. Glucose levels were measured from tail blood before and 15, 30, 60, or 120 min after injection of either 1 g/kg glucose or 0.75 U/kg insulin (Sigma) at ZT2 and ZT8 respectively by using the ONETOUCH UltraMini blood glucose monitoring system (LifeScan). Serum insulin levels were measured with the Rat/Mouse Insulin Elisa kit (Millipore) according to the manufacturer's instructions. The plasma samples were collected at ZT2 as described above for lipid assays."}}}
{"smiles": "COc1ccc(-c2cc(=O)c3c(OC)c(OC)c(OC)c(OC)c3o2)cc1OC", "note": "[nobiletin]", "values": [{"measurement": "Bmal1 reporter activation with ectopic expression of REV-ERBα", "setting": "[1]", "value": "abolished reporter activation"}, {"measurement": "induction of Bmal1 reporter after knockdown of RORα/γ by siRNAs", "setting": "[1]; Hepa1-6 cells", "value": "abrogated the nobiletin-mediated induction"}, {"measurement": "Bmal1 promoter-driven luciferase reporter activity", "setting": "[1]; WT RORE, in the presence of RORα or RORγ", "value": "dose-dependently increase"}, {"measurement": "reporter rhythm in pituitary explants", "setting": "[2]; PER2::Luc Clock^Δ19/+ reporter mice", "value": "Clock-enhancing effects"}, {"measurement": "reporter rhythm in liver explant", "setting": "[2]; PER2::Luc WT reporter mice", "value": "Clock-enhancing effects"}, {"measurement": "reporter rhythm in lung explant", "setting": "[2]; PER2::Luc WT reporter mice", "value": "Clock-enhancing effects"}, {"measurement": "reporter rhythm in pituitary explants", "setting": "[2]; PER2::Luc WT reporter mice", "value": "Clock-enhancing effects"}, {"measurement": "PER2::Luc reporter rhythms in peripheral tissue explants", "setting": "[2]; from both Clock^Δ19/+ and WT reporter knockin mice", "value": "enhanced PER2::Luc reporter rhythms"}, {"measurement": "reporter rhythms in SCN explants", "setting": "[3]", "value": "did not enhance reporter rhythms"}, {"measurement": "transcriptional induction of the Cps1 gene", "setting": "Cps1 gene", "value": "impaired"}, {"measurement": "metabolic homeostasis", "setting": "regular chow-fed mice", "value": "did not show significantly beneficial effects"}, {"measurement": "metabolic homeostasis", "setting": "regular chow-fed mice; listed as NOB", "value": "did not effect metabolic homeostasis"}]}
